Source: article PMC8510274, “Plasma-Induced Oxidation Products of (–)-Epigallocatechin Gallate with Digestive Enzymes Inhibitory Effects” (Molecules, 2021)
Where two headings read alike, the source gives them in different places.

Columns and labels:
[1] = biological target: T1, α-glucosidase (EC 3.2.1.20) from Saccharomyces cerevisiae (Saccharomyces cerevisiae, UniProt P53341); experiment: biochemical
T1 construct: purchased Sigma-Aldrich
Protocol: (§1) The specific optical rotation was obtained using a JASCO P-2000 polarimeter (JASCO, Tokyo, Japan), and fast atom bombardment mass spectrometry (FABMS) was recorded on a JMS-700 spectrometer (JEOL, Tokyo, Japan) in negative mode.
The α-glucosidase inhibitory activities of the compounds were evaluated using a minor modification of a previously reported method. The reaction mixture consisted of an enzyme solution (0.5 unit of α-glucosidase, 90 μL), a substrate (1 mM p-NPG, 100 μL) in a 0.1 M phosphate buffer (pH 7.0), and the isolated compounds, and positive control in 5% DMSO (10 μL). After incubation at 37 °C for 30 min, 0.1 M NaOH was added to quench the reaction.
(§2) The α-amylase inhibition assay was performed using a previously reported method with slight modifications. Porcine pancreatic α-amylase (1 unit, 90 µL) was incubated with the sample, and the positive control, at various concentrations. The reaction was started by adding 100 µL of a 1% potato starch solution, in 20 mM phosphate buffer (pH 6.9), to the reaction mixture. […] The mixture was then boiled at 80 °C for 10 min in a water bath and then cooled on ice. The α-amylase inhibitory activity was measured at 540 nm using an ELISA reader. Enzyme inhibition (%) = [1−(A1/A0)] × 100(1) where A0 and A1 are the absorbance of the control and sample, respectively. The α-glucosidase and α-amylase inhibition (%) was calculated, and the half-maximal inhibitory concentration (IC50) was determined by linear regression analysis of the inhibitory activities under the assay conditions.

[2] = biological target: T2, Porcine pancreatic α-amylase (Sus scrofa, UniProt P00690); experiment: α-amylase inhibition assay (potato starch, DNS reagent); type: biochemical
T2 construct: purchased Sigma-Aldrich; host or cells: porcine pancreas
T2 sequence (P00690 16-511): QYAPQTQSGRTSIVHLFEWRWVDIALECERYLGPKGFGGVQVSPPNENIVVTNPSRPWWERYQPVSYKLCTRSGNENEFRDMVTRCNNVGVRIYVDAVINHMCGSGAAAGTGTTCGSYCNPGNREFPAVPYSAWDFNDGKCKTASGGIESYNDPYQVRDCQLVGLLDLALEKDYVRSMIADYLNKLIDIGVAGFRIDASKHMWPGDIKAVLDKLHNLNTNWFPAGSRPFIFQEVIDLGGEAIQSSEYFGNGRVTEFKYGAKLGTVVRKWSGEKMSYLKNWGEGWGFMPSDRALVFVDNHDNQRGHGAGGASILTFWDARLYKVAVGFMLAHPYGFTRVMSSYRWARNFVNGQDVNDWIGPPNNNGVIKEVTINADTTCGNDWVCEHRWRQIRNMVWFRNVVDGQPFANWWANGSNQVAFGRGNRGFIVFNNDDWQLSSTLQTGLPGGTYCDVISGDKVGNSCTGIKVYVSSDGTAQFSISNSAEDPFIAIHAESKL
Protocol: as §1, §2

[3] = IC50 Value α-Glucosidase, isolated compounds, triplicate, acarbose positive control
[4] = isolated compounds, triplicate, acarbose positive control, read-out: IC50 Value α-Amylase (converted)

T1 sequence (P53341 whole entry): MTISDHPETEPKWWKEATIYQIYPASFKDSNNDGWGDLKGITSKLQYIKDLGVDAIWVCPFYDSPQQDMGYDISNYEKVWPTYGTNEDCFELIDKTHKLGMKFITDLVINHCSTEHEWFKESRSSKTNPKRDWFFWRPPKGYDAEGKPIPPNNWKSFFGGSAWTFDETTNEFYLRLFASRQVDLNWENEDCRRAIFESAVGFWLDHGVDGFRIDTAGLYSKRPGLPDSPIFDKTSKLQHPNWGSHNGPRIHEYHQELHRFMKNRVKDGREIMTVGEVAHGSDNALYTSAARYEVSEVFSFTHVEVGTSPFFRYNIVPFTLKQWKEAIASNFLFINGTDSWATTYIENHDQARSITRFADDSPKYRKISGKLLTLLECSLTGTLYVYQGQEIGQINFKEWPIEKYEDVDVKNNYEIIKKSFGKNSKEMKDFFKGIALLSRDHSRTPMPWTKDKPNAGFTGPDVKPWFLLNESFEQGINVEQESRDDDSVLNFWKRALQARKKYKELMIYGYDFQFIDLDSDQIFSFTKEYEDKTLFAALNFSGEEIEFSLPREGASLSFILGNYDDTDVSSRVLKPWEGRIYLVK

Row | IC50 ([1]; read-out: IC50 Value α-Glucosidase) | Compound | IC50 [1, 3] | IC50 [2] | IC50 [2, 4] | IC50 ([1]; IC50 Value α-Glucosidase, plasma irradiation time 0 min (control, parent EGCG)) | IC50 ([2]; plasma irradiation time 0 min (control, parent EGCG), read-out: IC50 Value α-Amylase (converted))
1 |  | O=C(O)c1cc(O)c(O)c(O)c1 [Compound 3, gallic acid] | > 300 µM | > 300 µM |  |  | 
2 | 15.9 ± 0.3 µM | O=C(O[C@@H]1Cc2c(O)cc(O)cc2O[C@@H]1C1=CC(=O)C2(O)C3C([C@H]4Oc5cc(O)cc(O)c5C[C@H]4OC(=O)c4cc(O)c(O)c(O)c4)=CC(=O)C4(O)C1C2(O)OC34O)c1cc(O)c(O)c(O)c1 (stereo partly shown) [Compound 1, EGCG quinone dimer A] |  |  | 18.7 ± 0.3 µM |  | 
3 |  | O=C(O[C@@H]1Cc2c(O)cc(O)cc2O[C@@H]1c1cc(O)c(O)c(O)c1)c1cc(O)c(O)c(O)c1 [EGCG, (−)-Epigallocatechin gallate, reference compound] | 97.2 ± 1.2 µM |  | 75.5 ± 1.3 µM | 97.1 µM | 75.3 µM
4 |  | O=C(O[C@@H]1Cc2c(O)cc(O)cc2O[C@@H]1C1=CC(=O)[C@]2(O)C(=O)c3c(cc(O)c(O)c3O)[C@H]12)c1cc(O)c(O)c(O)c1 [Compound 2, theacitrinin A] | 20.7 ± 0.5 µM | 25.3 ± 0.6 µM |  |  | 
